Experiments:
DGKζ = biological target: T1, DGKζ (Homo sapiens, UniProt Q13574); experiment: DGKζ biochemical assay (ADP-Glo); conditions: read-out: DGK ζ IC50
T1 construct: purchased Carna 12-110
Description: (§1) Compounds of the present invention were prepared into 10 mM DMSO solution and 10 nL of stock was transferred into 384 plates (Optiplate 384 plate) using Echo550. DMSO was used as high control, and ATP substrate buffer was used as a low control. A 1× enzyme assay buffer was prepared (Hepes, pH 7.0 25 mM, BSA 0.05%, Triton-X100 0.002%, CaCl2) 1 μM, MgCl2 10 mM, DTT 2 mM). […] OAG (1-oleoyl-2-acetyl-sn-glycerol, 25 mg/ml, Avanti 8001000) and PS (10 mg/ml, Avanti 840032P) were mixed at the ratio of 1:2. A 1× substrate solution was prepared with 1× assay buffer by 100-fold dilution. The substrate solution was sonicated on ice for 1 min. The pure ATP was added to the substrate solution (DGKα:400 μM). 5 μL of the enzyme solution were added to the 384 well plate, and the plate was spun for 1 min at 1000 rpm and incubated for 30 mins at RT. 5 μL of 1× substrate solution were added to the 384 well plate, the plate was spun and then incubated for 45 mins at RT. 10 μL ADP-Glo […] was added to stop the assay. After 60 mins at RT, 20 μL ADP-Glo Detection buffer was added as the final step. Plate was read after 45 min incubation at RT.
(§2) Data analysis was performed by calculating the […] using following the formula:
(§3) [formula] • High control (Hc): DMSO/DGKα(DGKζ)/Substrate/ATP/ADP-Glo • Low Control (Lc): ATP/ADP-Glo

DGKα = DGKα (Homo sapiens, UniProt P23743); experiment: DGKα biochemical assay (ADP-Glo); conditions: read-out: DGK α IC50
Sequence of DGKα (P23743 whole entry): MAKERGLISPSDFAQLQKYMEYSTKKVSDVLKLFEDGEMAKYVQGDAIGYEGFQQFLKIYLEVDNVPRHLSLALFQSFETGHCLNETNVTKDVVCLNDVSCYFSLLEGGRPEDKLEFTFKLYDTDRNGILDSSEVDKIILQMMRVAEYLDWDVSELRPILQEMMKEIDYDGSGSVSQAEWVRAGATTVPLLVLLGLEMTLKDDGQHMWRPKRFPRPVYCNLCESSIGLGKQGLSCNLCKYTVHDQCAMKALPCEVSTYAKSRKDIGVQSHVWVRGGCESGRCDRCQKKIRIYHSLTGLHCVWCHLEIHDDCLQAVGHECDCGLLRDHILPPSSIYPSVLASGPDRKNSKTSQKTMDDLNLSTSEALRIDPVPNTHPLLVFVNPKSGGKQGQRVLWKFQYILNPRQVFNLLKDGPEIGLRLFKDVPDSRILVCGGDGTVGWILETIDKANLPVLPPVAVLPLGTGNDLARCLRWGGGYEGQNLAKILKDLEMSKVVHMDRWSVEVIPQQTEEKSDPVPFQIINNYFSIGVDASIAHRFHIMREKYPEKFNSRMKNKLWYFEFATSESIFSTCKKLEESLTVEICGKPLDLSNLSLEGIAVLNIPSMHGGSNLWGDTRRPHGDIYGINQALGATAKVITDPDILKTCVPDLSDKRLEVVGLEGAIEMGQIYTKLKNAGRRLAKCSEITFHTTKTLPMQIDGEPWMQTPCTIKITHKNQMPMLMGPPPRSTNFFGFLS
Description: as §1, §2, §3

T1 sequence (Q13574 1-929 isoform Q13574-4): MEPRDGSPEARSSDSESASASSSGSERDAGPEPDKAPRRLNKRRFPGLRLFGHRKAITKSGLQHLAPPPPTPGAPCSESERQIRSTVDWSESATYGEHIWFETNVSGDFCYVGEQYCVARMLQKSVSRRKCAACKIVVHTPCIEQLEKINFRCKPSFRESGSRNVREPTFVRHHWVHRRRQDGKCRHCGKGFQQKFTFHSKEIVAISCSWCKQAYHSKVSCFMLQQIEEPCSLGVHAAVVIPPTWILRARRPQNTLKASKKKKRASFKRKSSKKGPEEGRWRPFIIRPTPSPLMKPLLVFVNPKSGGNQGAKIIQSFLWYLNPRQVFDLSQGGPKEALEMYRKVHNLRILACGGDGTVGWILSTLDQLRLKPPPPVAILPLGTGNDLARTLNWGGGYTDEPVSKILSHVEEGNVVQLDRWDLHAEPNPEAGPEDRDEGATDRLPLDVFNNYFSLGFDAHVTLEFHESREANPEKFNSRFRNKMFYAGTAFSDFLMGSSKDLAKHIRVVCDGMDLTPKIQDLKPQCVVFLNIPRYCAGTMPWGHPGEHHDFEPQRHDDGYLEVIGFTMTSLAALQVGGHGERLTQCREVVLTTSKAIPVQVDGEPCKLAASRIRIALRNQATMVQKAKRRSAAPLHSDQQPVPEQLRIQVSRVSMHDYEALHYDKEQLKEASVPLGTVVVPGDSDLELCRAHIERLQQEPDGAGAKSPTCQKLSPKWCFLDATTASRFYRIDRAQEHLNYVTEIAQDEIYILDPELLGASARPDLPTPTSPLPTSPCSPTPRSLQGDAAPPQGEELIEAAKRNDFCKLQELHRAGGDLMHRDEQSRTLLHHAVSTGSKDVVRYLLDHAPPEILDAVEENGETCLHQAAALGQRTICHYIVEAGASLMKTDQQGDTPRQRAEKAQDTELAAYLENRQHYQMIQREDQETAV

| SMILES | IC50 (DGKζ) [nM] | IC50 (DGKα) [nM] |
| --- | --- | --- |
| Cn1c(=O)c(C#N)c(N(C)[C@H]2CC[C@@H](N(CC3CCOC3)c3ccc(F)cc3)CC2)c2nc(C#N)ccc21 (relative stereo) [Example 55, cis-8-((4-((4-fluorophenyl)((tetrahydrofuran-3-yl)methyl)amino)cyclohexyl)(methyl)amino)-5-methyl-6-oxo-5,6-dihydro-1,5-naphthyridine-2,7-dicarbonitrile] | 10 to 100 | < 10 |
| Cn1c(=O)c(C#N)c(N(C)[C@H]2CC[C@H](N(CC3CCOC3)c3ccc(F)cc3)CC2)c2nc(C#N)ccc21 (relative stereo) [Example 56, trans-8-((4-((4-fluorophenyl)((tetrahydrofuran-3-yl)methyl)amino)cyclohexyl)(methyl)amino)-5-methyl-6-oxo-5,6-dihydro-1,5-naphthyridine-2,7-dicarbonitrile] | ≥ 1000 | 10 to 100 |
| Cn1c(=O)c(C#N)c(N(C)[C@H]2CC[C@@H](N(CC3CCCOC3)c3ccc(F)cc3)CC2)c2nc(C#N)ccc21 (relative stereo) [Example 57, cis-8-((4-((4-fluorophenyl)((tetrahydro-2H-pyran-3-yl)methyl)amino)cyclohexyl)(methyl)amino)-5-methyl-6-oxo-5,6-dihydro-1,5-naphthyridine-2,7-dicarbonitrile] | 10 to 100 | < 10 |
| Cn1c(=O)c(C#N)c(N(C)[C@H]2CC[C@H](N(CC3CCCOC3)c3ccc(F)cc3)CC2)c2nc(C#N)ccc21 (relative stereo) [Example 58, trans-8-((4-((4-fluorophenyl)((tetrahydro-2H-pyran-3-yl)methyl)amino)cyclohexyl)(methyl)amino)-5-methyl-6-oxo-5,6-dihydro-1,5-naphthyridine-2,7-dicarbonitrile] | ≥ 1000 | 100 to 1000 |
| CN(c1cc(=O)n(C)c2ccc(C#N)nc12)C1CCC(N(CC2CCC2)c2ccc(CN3CCOCC3)cc2)CC1 (single isomer, unassigned) [Example 189, (cis or trans)-8-((4-((cyclobutylmethyl)(4-(morpholinomethyl)phenyl)amino)cyclohexyl) (methyl)amino)-5-methyl-6-oxo-5,6-dihydro-1,5-naphthyridine-2-carbonitrile] | ≥ 1000 | ≥ 1000 |
| CN(c1c(C#N)c(=O)n(C)c2ccc(C#N)nc12)C1CCC(N(CC2CCC2)c2ccc(CN3CCOCC3)cc2)CC1 (single isomer, unassigned) [Example 190, (cis or trans)-8-((4-((cyclobutylmethyl)(4-(morpholinomethyl)phenyl)amino)cyclohexyl) (methyl)amino)-5-methyl-6-oxo-5,6-dihydro-1,5-naphthyridine-2,7-dicarbonitrile] | ≥ 1000 | 10 to 100 |
| CN(c1c(C#N)c(=O)n(C)c2ccc(Cl)nc12)C1CCC(N(CC2CCC2)c2ccc(CN3CCOCC3)cc2)CC1 (single isomer, unassigned) [Example 191, (cis or trans)-6-chloro-4-((4-((cyclobutylmethyl)(4-(morpholinomethyl)phenyl)amino)cyclohexyl) (methyl)amino)-1-methyl-2-oxo-1,2-dihydro-1,5-naphthyridine-3-carbonitrile] | ≥ 1000 | 10 to 100 |
| Cn1c(=O)cc(N(C)[C@H]2CC[C@@H](N(CC3COCCO3)c3cccc4c3OCO4)CC2)c2nc(C#N)ccc21 (single isomer, unassigned) [Example 195, cis-8-((-4-((((S or R)-1,4-dioxan-2-yl)methyl) (benzo[d][1,3]dioxol-4-yl)amino)cyclohexyl)(methyl)amino)-5-methyl-6-oxo-5,6-dihydro-1,5-naphthyridine-2-carbonitrile] | 100 to 1000 | 100 to 1000 |
| Cn1c(=O)cc(N(C)[C@H]2CC[C@@H](N(CC3COCCO3)c3cccc4c3OCO4)CC2)c2nc(C#N)ccc21 (single isomer, unassigned) [Example 196, cis-8-((-4-((((R or S)-1,4-dioxan-2-yl)methyl) (benzo[d][1,3]dioxol-4-yl)amino)cyclohexyl)(methyl)amino)-5-methyl-6-oxo-5,6-dihydro-1,5-naphthyridine-2-carbonitrile] | 100 to 1000 | ≥ 1000 |
| CN1CCN(Cc2ccc(N(CC3CC3)C3CCC(N(C)c4c(C#N)c(=O)n(C)c5ccc(C#N)nc45)CC3)cc2)CC1 (single isomer, unassigned) [Example 199, (cis or trans)-8-((4-((cyclopropylmethyl)(4-((4-methylpiperazin-1-yl)methyl)phenyl)amino)cyclohexyl)(methyl)amino)-5-methyl-6-oxo-5,6-dihydro-1,5-naphthyridine-2,7-dicarbonitrile] | ≥ 1000 | ≥ 1000 |
| Cc1cc(F)ccc1N(CC1CCCO1)C1CCC(N(C)c2c(C#N)c(=O)n(C)c3ccc(C#N)nc23)CC1 (stereo in doubt) [Example 153, cis-8-((-4-((4-fluoro-2-methylphenyl) ((tetrahydrofuran-2-yl)methyl)amino)cyclohexyl) (methyl)amino)-5-methyl-6-oxo-5,6-dihydro-1,5-naphthyridine-2,7-dicarbonitrile] | 100 to 1000 | 100 to 1000 |
| Cn1c(=O)cc(N2CCC(N(CC3CC3)c3ccccc3O)CC2)c2nc(C#N)ccc21 [Example 1A, 8-(4-((Cyclopropylmethyl)(2-hydroxyphenyl)amino)piperidin-1-yl)-5-methyl-6-oxo-5,6-dihydro-1,5-naphthyridine-2-carbonitrile] | ≥ 1000 | 100 to 1000 |
| Cn1c(=O)c([N+](=O)[O-])c(N2CCC(N(CC3CC3)c3ccccc3)CC2)c2nc(C#N)ccc21 [Example 1B, 8-(4-((Cyclopropylmethyl)(phenyl)amino)piperidin-1-yl)-5-methyl-7-nitro-6-oxo-5,6-dihydro-1,5-naphthyridine-2-carbonitrile] | 100 to 1000 | 10 to 100 |
| Cn1c(=O)c([N+](=O)[O-])c(N2CCC(N(CC3COC3)c3ccccc3)CC2)c2nc(C#N)ccc21 [Example 1C, 5-Methyl-7-nitro-8-(4-((oxetan-3-ylmethyl)(phenyl)amino)piperidin-1-yl)-6-oxo-5,6-dihydro-1,5-naphthyridine-2-carbonitrile] | ≥ 1000 | ≥ 1000 |
| Cn1c(=O)c([N+](=O)[O-])c(N2CCC(N(CC3(C)COC3)c3ccccc3)CC2)c2nc(C#N)ccc21 [Example 1D, 5-Methyl-8-(4-(((3-methyloxetan-3-yl)methyl)(phenyl)amino)piperidin-1-yl)-7-nitro-6-oxo-5,6-dihydro-1,5-naphthyridine-2-carbonitrile] | ≥ 1000 | 100 to 1000 |
| Cn1c(=O)c(C#N)c(N2CCC(N(CC3CC3)c3ccccc3O)CC2)c2nc(Cl)ccc21 [Example 1E, 6-Chloro-4-(4-((cyclopropylmethyl)(2-hydroxyphenyl)amino)piperidin-1-yl)-1-methyl-2-oxo-1,2-dihydro-1,5-naphthyridine-3-carbonitrile] | ≥ 1000 | 10 to 100 |
| Cc1ccc2c(c1)c(N1CCC(N(CC3CC3)c3ccccc3)CC1)cc1nncn12 [Example 1F, N-(Cyclopropylmethyl)-1-(7-methyl-[1,2,4]triazolo[4,3-a]quinolin-5-yl)-N-phenylpiperidin-4-amine] | ≥ 1000 | 10 to 100 |

More lines, now with the values ahead:

| IC50 (DGKζ) [nM] | IC50 (DGKα) [nM] | SMILES |
| --- | --- | --- |
| ≥ 1000 | 10 to 100 | CN1C(=O)CN([C@H]2CC[C@H](N(CC3CC3)c3ccccc3)CC2)c2nc(C#N)ccc21 [Example 2A, trans-4-[4-[N-(Cyclopropylmethyl)anilino]cyclohexyl]-1-methyl-2-oxo-3H-pyrido[2,3-b]pyrazine-6-carbonitrile] |
| ≥ 1000 | 100 to 1000 | CN1C(=O)CN([C@H]2CC[C@H](N(c3ccccc3O)C3CC3)CC2)c2nc(C#N)ccc21 [Example 2B, 4-(trans-4-(Cyclopropyl(2-hydroxyphenyl)amino)cyclohexyl)-1-methyl-2-oxo-1,2,3,4-tetrahydropyrido[3,2-b]pyrazine-6-carbonitrile] |
| ≥ 1000 | 100 to 1000 | CN1C(=O)CN([C@H]2CC[C@@H](N(CC3CC3)c3ccccc3)CC2)c2nc(C#N)ccc21 [Example 2C, cis-4-[4-[N-(Cyclopropylmethyl)anilino]cyclohexyl]-1-methyl-2-oxo-3H-pyrido[2,3-b]pyrazine-6-carbonitrile] |
| ≥ 1000 | < 10 | Cn1c(=O)c(C#N)c(N[C@H]2CC[C@H](N(c3ccccc3)C3CC3)CC2)c2nc(Cl)ccc21 [Example 3A, trans-6-Chloro-4-((4-(cyclopropyl(phenyl)amino)cyclohexyl)amino)-1-methyl-2-oxo-1,2-dihydro-1,5-naphthyridine-3-carbonitrile] |
| ≥ 1000 | 100 to 1000 | Cn1c(=O)cc(N(C)[C@H]2CC[C@H](N(CC3CC3)c3ccc(F)cn3)CC2)c2nc(C#N)ccc21 [Example 3AA] |
| ≥ 1000 | < 10 | Cn1c(=O)c(C#N)c(N[C@H]2CC[C@H](N(CC3CC3)c3ccccc3)CC2)c2nc(Cl)ccc21 [Example 3B, trans-6-Chloro-4-((4-((cyclopropylmethyl)(phenyl)amino)cyclohexyl)amino)-1-methyl-2-oxo-1,2-dihydro-1,5-naphthyridine-3-carbonitrile] |

— US20230271954A1 (Gossamer Bio Services, Inc., priority 2020, published 2023)
